This is an account of results in patent US6432969B1, “N-(substituted glycyl)-2 cyanopyrrolidines, pharmaceutical compositions containing them and their use in inhibiting dipeptidyl peptidase-IV” (Novartis AG, priority 2000, dated 2002).

Where a name gives a salt, the structure may show the parent alone.

In general, melting point refers to the temperature, or range, at which the solid turns liquid.

In the case of `N#C[C@@H]1CCCN1C(=O)CNC1CCC(Nc2ccc(C(F)(F)F)cn2)CC1` (stereo partly shown) (as salt: hydrochloride), the melting point is 270 to 273 °C.

Molecule `N#C[C@@H]1CCCN1C(=O)CN[C@H]1CC[C@H](NS(=O)(=O)c2cccs2)CC1` (as salt: hydrochloride) [Ex. 2AA] showed a melting point of 75 to 77 °C. `CC(C)(CNc1ccc(C(F)(F)F)cn1)NCC(=O)N1CCC[C@H]1C#N` (as salt: hydrochloride) [Ex. 2B, 1-[[[2-[(5-trifluoromethyl-2-pyridinyl)amino]-1,1-dimethylethyl]amino]acetyl]-2-cyano-(S)-pyrrolidine]: the melting point lay within 170 to 172 °C.

Regarding `CC(C)(Cc1ccc(F)cc1)NCC(=O)N1CCC[C@H]1C#N` (as salt: hydrochloride) [Ex. 2BB], the melting point fell in the range of 198 to 200 °C. Regarding `CC(C)(Cc1ccccc1)NCC(=O)N1CCC[C@H]1C#N` (as salt: hydrochloride) [Ex. 2CC, 1-[[(1,1-dimethyl-2-phenylethyl)amino]acetyl]-2-cyano-(S)-pyrrolidine], the melting point fell in the range of 212 to 214 °C. As to `CC(C)(CNc1ncccc1Cl)NCC(=O)N1CCC[C@H]1C#N` (as salt: hydrochloride) [Ex. 2D, 1-[[[2-[(3-chloro-2-pyridinyl)amino]-1,1-dimethylethyl]amino]acetyl]-2-cyano-(S)-pyrrolidine], the melting point was 144 to 146 °C. Take `CCCCCC12CCC(NCC(=O)N3CCC[C@H]3C#N)(CC1)CC2` (as salt: hydrochloride) [Ex. 2DD, 1-[[(4-pentylbicyclo[2.2.2]oct-1-yl)amino]acetyl]-2-cyano-(S)-pyrrolidine]: the melting point lay in the range of 99 to 102 °C. `CC(C)(CNc1ncc(Cl)cc1Cl)NCC(=O)N1CCC[C@H]1C#N` (as salt: hydrochloride) [Ex. 2F, 1-[[[2-[(3,5-dichloro-2-pyridinyl)amino]-1,1-dimethylethyl]amino]acetyl]-2-cyano-(S)-pyrrolidine] had a melting point of 108 to 110 °C. `N#CC1CCCN1C(=O)CNC1CCC(Oc2ccc(Cl)cc2)CC1` (as salt: hydrochloride) [Ex. 2FF, 1-[[4-[4-chlorophenoxy)cyclohexyl]amino]acetyl]-2-cyano-(S)-pyrrolidine] showed a melting point of 232 to 235 °C. Molecule `CC(C)(CNc1ncccc1C(F)(F)F)NCC(=O)N1CCC[C@H]1C#N` (as salt: hydrochloride) [Ex. 2G, 1-[[[2-[(3-trifluoromethyl-2-pyridinyl)amino]-1,1-dimethylethyl]amino]acetyl]-2-cyano-(S)-pyrrolidine] yielded a melting point of 112 to 114 °C. Consider `N#C[C@@H]1CCCN1C(=O)CN[C@H]1CC[C@H](Oc2cccc(C(F)(F)F)c2)CC1` (as salt: hydrochloride) [Ex. 2GG, 1-[[[4-[(3-trifluoromethyl)phenoxy]cyclohexyl]amino]acetyl]-2-cyano-(S)-pyrrolidine], for which the melting point was 120 to 122 °C.

Regarding `CC(C)(CNC(=O)C(C)(C)C)NCC(=O)N1CCC[C@H]1C#N` (as salt: hydrochloride) [Ex. 2H, 1-[[[2-[(2,2-dimethyl-1-oxopropyl)amino]-1,1-dimethylethyl]amino]acetyl]-2-cyano-(S)-pyrrolidine], the melting point was 225 to 227 °C. For `N#C[C@@H]1CCCN1C(=O)CN[C@H]1CC[C@H](Oc2cccc(Cl)c2)CC1` (as salt: hydrochloride) [Ex. 2HH], the melting point fell in the range of 72 to 74 °C. With `CC(C)(CNC(=O)c1ccc(Cl)cc1)NCC(=O)N1CCC[C@H]1C#N` (as salt: hydrochloride) [Ex. 2I, 1-[[[2-[(4-chlorobenzoyl)amino]-1,1-dimethylethyl]amino]acetyl]-2-cyano-(S)-pyrrolidine], the melting point lay in the range of 121 to 123 °C. With `N#C[C@@H]1CCCN1C(=O)CNC1CCN(C(=O)Nc2ccc(Cl)cc2)CC1` (as salt: hydrochloride) [Ex. 2II, 1-[[[1-[[(4-chlorophenyl)amino]carbonyl]-4-piperidinyl]amino]acetyl]-2-cyano-(S)-pyrrolidine], the melting point was 172 to 174 °C. `CC(C)N(C(=O)NCC(C)(C)NCC(=O)N1CCC[C@H]1C#N)C(C)C` (as salt: hydrochloride) [Ex. 2J, 1-[[[2-[[(diisopropylamino)carbonyl]amino]-1,1-dimethylethyl]amino]acetyl]-2-cyano-(S)-pyrrolidine] gave a melting point of 128 to 130 °C.

As to `CC(C)N(C(=O)N1CCC(NCC(=O)N2CCC[C@H]2C#N)CC1)C(C)C` (as salt: hydrochloride) [Ex. 2JJ, 1-[[[1-[(diisopropylamino)carbonyl]-4-piperidinyl]amino]acetyl]-2-cyano-(S)-pyrrolidine], the melting point was in the range of 82 to 84 °C. As for `CC(C)(CNC(=O)Nc1ccc(Cl)cc1)NCC(=O)N1CCC[C@H]1C#N` (as salt: hydrochloride) [Ex. 2K, 1-[[[2-[[[(4-chlorophenyl)amino]carbonyl]amino]-1,1-dimethylethyl]amino]acetyl]-2-cyano-(S)-pyrrolidine], the melting point lay within 112 to 114 °C.

`N#Cc1ccc(NC2CCC(NCC(=O)N3CCC[C@H]3C#N)CC2)nc1` (stereo partly drawn) (as salt: hydrochloride) [Ex. 2L, 1-[[[4-[(5-cyano-2-pyridinyl)amino]cyclohexyl]amino]acetyl]-2-cyano-(S)-pyrrolidine] displayed a melting point of 242 to 244 °C.

Molecule `N#C[C@@H]1CCCN1C(=O)CNC1CCN(c2nc(-c3ccc(Cl)cc3)cs2)CC1` (as salt: hydrochloride) [Ex. 2LL] registered a melting point of 160 to 162 °C. On to `N#C[C@@H]1CCCN1C(=O)CNC1CCC(NS(=O)(=O)c2ccccc2)CC1` (stereo partly drawn) (as salt: hydrochloride) [Ex. 2M, 1-[[[4-[(phenylsulfonyl)amino]cyclohexyl]amino]acetyl]-2-cyano-(S)-pyrrolidine], for which the melting point lay in the range of 120 to 122 °C. Molecule `COc1ccc(-c2csc(N3CCC(NCC(=O)N4CCC[C@H]4C#N)CC3)n2)cc1` (as salt: hydrochloride) [Ex. 2MM] showed a melting point of 154 to 156 °C.

On to `N#C[C@@H]1CCCN1C(=O)CN[C@H]1CC[C@H](Nc2ncccc2C(F)(F)F)CC1` (as salt: hydrochloride) [Ex. 2P, 1-[[4-[[(3-trifluoromethyl-2-pyridinyl)amino]cyclohexyl]amino]acetyl]-2-cyano-(S)-pyrrolidine], for which the melting point fell in the range of 289 to 292 °C. For the molecule `N#C[C@@H]1CCCN1C(=O)CN[C@H]1CC[C@H](NS(=O)(=O)c2ccc(Cl)cc2)CC1` (as salt: hydrochloride) [Ex. 2Q, 1-[[[[4-[(4-chlorophenyl)sulfonyl]amino]cyclohexyl]amino]acetyl]-2-cyano-(S)-pyrrolidine], the melting point lay in the range of 160 to 162 °C.

Molecule `N#C[C@@H]1CCCN1C(=O)CNC1CCC(Nc2ccnc(Cl)n2)CC1` (stereo partly drawn) (as salt: hydrochloride) [Ex. 2S, 1-[[[4-[(2-chloro-4-pyrimidinyl)amino]cyclohexyl]amino]acetyl]-2-cyano-(S)-pyrrolidine] returned a melting point of 290 to 293 °C. For `N#C[C@@H]1CCCN1C(=O)CN[C@H]1CC[C@H](NC(=O)c2ccc(Cl)cc2)CC1` (as salt: hydrochloride) [Ex. 2T, 1-[[[4-[(4-chlorobenzoyl)amino]cyclohexyl]amino]acetyl]-2-cyano-, (S)-pyrrolidine] the value was 260 to 263 °C. Consider `CC(C)(C)C(=O)NC1CCC(NCC(=O)N2CCC[C@H]2C#N)CC1` (stereo partly drawn) (as salt: hydrochloride) [Ex. 2U, 1-[[[4-[(2,2-dimethyl-1-oxopropyl)amino]cyclohexyl]amino]acetyl]-2-cyano-(S)-pyrrolidine], for which the melting point lay in the range of 290 to 294 °C. With `N#C[C@@H]1CCCN1C(=O)CNC1CCC(Nc2nc3ccccc3s2)CC1` (stereo partly drawn) (as salt: hydrochloride) [Ex. 2V, 1-[[[4-[(2-benzothiazolyl)amino]cyclohexyl]amino]acetyl]-2-cyano-(S)-pyrrolidine], the melting point was 246 to 248 °C. As to `N#Cc1ccc(NC2CCC(NCC(=O)N3CCC[C@H]3C#N)CC2)cc1` (stereo partly drawn) (as salt: hydrochloride) [Ex. 2W, 1-[[[4-[(4-cyanophenyl)amino]cyclohexyl]amino]acetyl]-2-cyano-(S)-pyrrolidine], the melting point lay within 165 to 167 °C. The molecule `N#C[C@@H]1CCCN1C(=O)CNC1CCC(NC(=O)C2CCCCC2)CC1` (stereo partly drawn) (as salt: hydrochloride) [Ex. 2X, 1-[[[4-[(cyclohexylcarbonyl)amino]cyclohexyl]amino]acetyl]-2-cyano-(S)-pyrrolidine] came in with a melting point of 189 to 190 °C.

Turning to `N#C[C@@H]1CCCN1C(=O)CNC1CCC(Nc2nc3cc(Cl)ccc3s2)CC1` (stereo partly drawn) (as salt: hydrochloride) [Ex. 2Y, 1-[[[4-[(5-chloro-2-benzothiazolyl)amino]cyclohexyl]amino]acetyl]-2-cyano-(S)-pyrrolidine], the melting point lay within 290 to 294 °C. The molecule `N#C[C@@H]1CCCN1C(=O)CN[C@H]1CC[C@H](NS(=O)(=O)c2ccc(C(F)(F)F)cc2)CC1` (as salt: hydrochloride) [Ex. 2Z, 1-[[[4-[[[(4-trifluoromethyl)phenyl]sulfonyl]amino]cyclohexyl]amino]acetyl]-2-cyano-(S)-pyrrolidine] yielded a melting point of 135 to 137 °C. In turn, `N#C[C@@H]1CCCN1C(=O)CNC1CCN(C(=O)C2CCCCC2)CC1` (as salt: hydrochloride) [Ex. 4A, 1-[[[1-(cyclohexylcarbonyl)-4-piperidinyl]amino]acetyl]-2-cyano-(S)-pyrrolidine] showed a melting point of over 300 °C. For `N#C[C@@H]1CCCN1C(=O)CNC1CCN(C(=O)c2ccc(Cl)cc2)CC1` (as salt: hydrochloride) [Ex. 4B] the value was 152 to 155 °C; for `N#C[C@@H]1CCCN1C(=O)CNC1CCN(S(=O)(=O)c2ccc(C(F)(F)F)cc2)CC1` (as salt: hydrochloride) [Ex. 4C], over 300 °C; for `N#C[C@@H]1CCCN1C(=O)CNC1CCN(S(=O)(=O)c2ccccc2)CC1` (as salt: hydrochloride) [Ex. 4D, 1-[[(1-phenylsulfonyl-4-piperidinyl)amino]acetyl]-2-cyano-(S)-pyrrolidine], over 300 °C. `CC(C)(CNc1ccc(C#N)cn1)NCC(=O)N1CCC[C@H]1C#N` [Ex. 2A, 1-[[[2-[(5-cyano-2-pyridinyl)amino]-1,1-dimethylethyl]amino]acetyl]-2-cyano-(S)-pyrrolidine] returned a melting point of 47 to 49 °C.
